Data on 1 molecule can be found in patent US4111955A, “N-Trihalomethanesulfenyl carbamoyloximino di-sulfur heterocyclic compounds” (priority 1976, dated 1978).

The structures appear in SMILES notation. Values after ≈ are worked out from the molar mass of the structure shown.

Data set [1] deals with bean aphid (Aphis fabae Scop.). Nature of the data set: Bean Aphid Foliage Spray Test. The arrangement: key to pesticidal activity rating, Aphid: A: excellent control; B: partial control; C: no control. It is filed as in vivo. How it is done:
Adults and nymphal stages of the bean aphid (Aphis fabae Scop.) reared on potted dwarf nasturtium plants at 65°-70° F. and 50-70 percent relative humidity, constituted the test insects. For testing purposes, the number of aphids per pot was standardized to 100-150 by trimming plants containing excess aphids.
The test compounds were formulated by diluting the stock suspension with water to give a suspension containing 500 parts of test compound per million parts of final formulation.
The potted plants (one pot per compound tested) infested with 100-150 aphids, were placed on a revolving turntable and sprayed with 100-110 milliliters of test compound formulation by use of a DeVilbiss spray gun set at 40 psig. air pressure. This application, which lasted 25 seconds, was sufficient to wet the plants to run-off. As a control, 100-110 milliliters of a water-acetone-emulsifier solution containing no test compound were also sprayed on infested plants. After spraying, the pots were placed on their sides on a sheet of white standard mimeograph paper which had been previously ruled to facilitate counting. Temperature and humidity in the test room during the 24 hour holding period were 65°-70° F. and 50-70 percent, respectively. Aphids which fell onto the paper and were unable to remain standing after being uprighted were considered dead. Aphids remaining on the plants were observed closely for movement and those which were unable to move the length of the body upon stimulation by prodding were considered dead. Percent mortality was recorded for various concentration levels.
(§1) In these tests the pesticidal activity of the compounds against aphid, mite, Southern Armyworm, Bean Beetle and House fly was rated as follows:
(§2) The LD50 values shown in the above Table II were determined by testing the compositions over an appropriate concentration range obtained by serial dilution of the stock suspension with water. The percent kill was plotted on log-probit graph paper versus parts per million concentration, and the LD50 read from an eye-fitted line drawn through the resultant points.

In data set [2] the test system is house flies (Musca domestica, L.). Description: Fly Bait Test. It is filed as in vivo. Set-up: key to pesticidal activity rating, Housefly: A: excellent control; B: partial control; C: no control. How it is done: Four to 6 day old adult house flies (Musca domestica, L.), reared according to the specifications of the Chemical Specialities Manufacturing Association (Blue Book, McNair-Dorland Co., N.Y. 1954; pages 243-244, 261) under controlled conditions of 80°±5° F. and 50±5 percent relative humidity, were the test insects. The flies were immobilized by anesthetizing with carbon dioxide and twenty five immobilized individuals, males and females, were transferred to a cage consisting of a standard food strainer about 5 inches in diameter which was inverted over a wrapping-paper-covered surface. The test compounds were formulated by diluting the stock suspension with a 10 percent (by weight) sugar solution to give a suspension containing 500 parts of test compound per million parts of final formulation, by weight. Ten milliliters of the test formulation were added to a souffle cup containing a 1-inch square of an absorbent cotton pad. This bait cup was introduced and centered on the blotting paper under the food strainer prior to admitting the anesthetized flies. The caged flies were allowed to feed on the bait for 24 hours, at a temperature of 80°±5° F. and the relative humidity of 50±5 percent.
as §1, §2

Data set [3] in a line: Peroral toxicity to mammals (rat). The note with it: in vivo, po; rat, peroral, Table II; read-out: Rat P.O. LD50. It is filed as in vivo. The protocol:
Certain of these compositions were also evaluated to determine their peroral toxicity to mammals. The animal selected for this experiment was the rat. The test results obtained are expressed in terms of the number of milligrams of composition per kilogram of weight of the animal required to achieve a mortality rate of 50 percent (LD50).

The subject of data set [4] is mites. Nature of the data set: Systemic miticidal activity (soil drench of infested bean plants). It is filed as in vivo, Tetranychus urticae Koch. The note with it: Tetranychus urticae; systemic, soil drench, value in parentheses, Table II; read-out: Insect Toxicity, LD50, Mite, systemic activity. The protocol: (§3) Adults and nymphal stages of the two-spotted mite (Tetranychus urticae Koch), reared on Tendergreen bean plants at 80±5 percent relative humidity, were the test organisms. Infested leaves from a stock culture were placed on the primary leaves of two bean plants 6 to 8 inches in height, growing in a 21/2 inch clay pot. 150-200 Mites, a sufficient number for testing, transferred from the excised leaves to the fresh plants in a period of 24 hours. Following the 24 hour transfer period, the excised leaves were removed from the infested plants. The test compounds were formulated by diluting the stock suspension with water to give a suspension containing 500 parts of test compound per million parts of final formulation. The potted plants (one pot per compound) were placed on a revolving turntable and sprayed with 100-110 milliliters of test compound formulation by use of a DeVilbiss spray gun set at 40 psig. air pressure. This application, which lasted 25 seconds, was sufficient to wet the plants to run-off. As a control, 100-110 milliliters of a water solution containing acetone and emulsifier in the same concentrations as the test compound formulation, but containing no test compound, were also sprayed on infested plants. The sprayed plants were held at 80±5 percent relative humidity for 6 days, after which a mortality count of motile forms was made. Microscopic examination for motile forms was made on the leaves of the test plants. Any individual which was capable of locomotion upon prodding was considered living.
as §2
Systemic treatments were made by drenching 20 milliliters of the test compound formulation into the soil around the roots of bean plants growing in 21/2 inch clay pots. […]

Data set [5] relates to two-spotted mite (Tetranychus urticae Koch). Nature of the data set: Mite Foliage Spray Test. Set-up: key to pesticidal activity rating, Mite: A: excellent control; B: partial control; C: no control. It is filed as in vivo. How it is done: as §3, §1, §2
Data set [6] deals with southern armyworm (Prodenia eridania, (Cram.)). Description: Southern Armyworm Leaf Spray Test. It is filed as in vivo. Set-up: key to pesticidal activity rating, Armyworm: A: excellent control; B: partial control; C: no control. How it is done:
Larvae of the southern armyworm (Prodenia eridania, (Cram.)), reared on Tendergreen bean plants at a temperature of 80°±5° F. and a relative humidity of 50±5 percent, constituted the test insects.
The test compounds were formulated by diluting the stock suspension with water to give a suspension containing 500 parts of test compound per million parts of final formulation. Potted Tendergreen bean plants of standard height and age were placed on a revolving turntable and sprayed with 100-110 milliliters of test compound formulation by use of a DeVilbiss spray gun set at 10 psig air pressure. This application, which lasted 25 seconds, was sufficient to wet plants to run-off. As a control, 100-110 milliliters of a water-acetone-emulsifier solution containing no test compound were also sprayed on infested plants. When dry, the paired leaves were separated and each one was placed in a 9 centimeter Petri dish lined with moistened filter paper. Five randomly selected larvae were introduced into each dish and the dishes were closed. The closed dishes were labeled and held at 80°-85° F. for 3 days. Although the larvae could easily consume the whole leaf within 24 hours, no more food was added. Larvae which were unable to move the length of the body, even upon stimulation by prodding, were considered dead. Percent mortality was recorded for various concentration levels.
as §1, §2

The test system of data set [7] is Mexican bean beetle (Epilachna varivestis, Muls.). Description: Mexican Bean Beetle Leaf Spray Test. It is filed as in vivo. Set-up: key to pesticidal activity rating, Bean beetle: A: excellent control; B: partial control; C: no control. As to conditions: leaf spray. The protocol:
Fourth instar larvae of the Mexican bean beetle (Epilachna varivestis, Muls.), reared on Tendergreen bean plants at a temperature of 80°±5° F. and 50±5 percent relative humidity, were the test insects.
The test compounds were formulated by diluting the stock suspension with water to give a suspension containing 500 parts of test compound per million parts of final formulation. Potted Tendergreen bean plants of standard height and age were placed on a revolving turntable and sprayed with 100-110 milliliters of test compound formulation by use of a DeVilbiss spray gun set at 10 psig air pressure. This application, which lasted 25 seconds, was sufficient to wet plants to run-off. As a control, 100-110 milliliters of a water-acetone-emulsifier solution containing no test compound were also sprayed on infested plants. When dry, the paired leaves were separated and each was placed in a 9 centimeter Petri dish lined with moistened filter paper. Five randomly selected larvae were introduced into each dish, and the dishes were closed. The closed dishes were labeled and held at a temperature of 80°±5° F. for 3 days. Although the larvae could easily consume the leaf within 24 to 48 hours, no more food was added. Larvae which were unable to move the length of the body, even upon stimulation, were considered dead.
as §1, §2

On to `CNC(=O)ON=C1CSCCS1` [drawing 3 --NHCH3, reference compound], for which the “pesticidal activity rating, Aphid” value in data set [1] (500 parts per million, 24 hour) is on record as “A”. The LC50 was found to be 5 µg/mL (≈ 24.2 µM) in data set [1] (Aphis fabae, foliar, 24 h, Table II, read-out: Insect Toxicity, LD50, Aphid); 1 µg/mL (≈ 4.85 µM) in data set [2] (Musca domestica, 24 h, Table II, read-out: Insect Toxicity, LD50, House fly); 12 µg/mL (≈ 58.2 µM) in data set [4]; 6 µg/mL (≈ 29.1 µM) in data set [5] (Tetranychus urticae, foliar, Table II, read-out: Insect Toxicity, LD50, Mite); 53 µg/mL (≈ 257 µM) in data set [6] (Spodoptera eridania, 72 h, Table II, read-out: Insect Toxicity, LD50, Armyworm); 52 µg/mL (≈ 252 µM) in data set [7] (Epilachna varivestis, 72 h, Table II, read-out: Insect Toxicity, LD50, Mexican Bean beetle). In data set [2] (500 parts per million, 24 hours), the “pesticidal activity rating, Housefly” value is “A”. Moreover, in data set [3], the 50% lethal dose (LD50) (commonly the dose at which mortality reaches 50%) was 15 mg/kg. For the same molecule, the “pesticidal activity rating, Mite” value in data set [5] (500 parts per million, 6 days) is reported as “A”. In addition, the “pesticidal activity rating, Armyworm” value in data set [6] (500 parts per million, 3 days) is recorded as “A”. In data set [7] (500 parts per million, 3 days), the “pesticidal activity rating, Bean beetle” value is listed as “A”.
